From the supplement of paper PMC10307832

Key:
Test in all cases: relative viability (nuclei count vs DMSO), 5 days (fraction); higher = more cells survive
[1] = compound: C(C(=O)C(=O)O)Br [Bromopyruvate] + Nc1ncn([C@H]2C[C@H](O)[C@@H](CO)O2)c(=O)n1 [Decitabine] (partner 2 µM)
In short: (§1)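 Lung cancer cell lines, seeded in 1536-well plates, were treated the following day by pin tool with a single drug or with five library-drug doses (not always all listed) in √10 steps on top of a fixed anchor-drug dose. Cells were fixed and nuclei stained in one step after 5 days, and nuclei were counted. Relative viability is the nuclei count for treated wells divided by that for vehicle wells, reported as medians of duplicate plates.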

[2] = compound: C(C(=O)C(=O)O)Br [Bromopyruvate] + O=C(CCCCCCC(=O)Nc1ccccc1)NO [Vorinostat] (partner 1 µM)
In short: as §1

Bicalutamide + Lapatinib = compound: CC(O)(CS(=O)(=O)c1ccc(F)cc1)C(=O)Nc1ccc(C#N)c(C(F)(F)F)c1 [Bicalutamide] + CS(=O)(=O)CCNCc1ccc(-c2ccc3ncnc(Nc4ccc(OCc5cccc(F)c5)c(Cl)c4)c3c2)o1 [Lapatinib] (partner 2 µM)
In short: as §1

Bicalutamide + Alpelisib = compound: CC(O)(CS(=O)(=O)c1ccc(F)cc1)C(=O)Nc1ccc(C#N)c(C(F)(F)F)c1 [Bicalutamide] + Cc1nc(NC(=O)N2CCC[C@H]2C(N)=O)sc1-c1ccnc(C(C)(C)C(F)(F)F)c1 [Alpelisib] (partner 2 µM)
In short: as §1

Row | Cell Line | relative viability ([1]; first compound 1 µM) | relative viability ([1]; first compound 3.162 µM) | relative viability ([1]; first compound 10 µM) | relative viability ([1]; first compound 31.62 µM) | relative viability ([1]; first compound 100 µM) | relative viability ([2]; first compound 1 µM) | relative viability ([2]; first compound 3.162 µM) | relative viability ([2]; first compound 10 µM) | relative viability ([2]; first compound 31.62 µM) | relative viability ([2]; first compound 100 µM) | relative viability (Bicalutamide + Lapatinib; first compound 0.08 µM) | relative viability (Bicalutamide + Lapatinib; first compound 0.253 µM) | relative viability (Bicalutamide + Lapatinib; first compound 0.8 µM) | relative viability (Bicalutamide + Lapatinib; first compound 2.53 µM) | relative viability (Bicalutamide + Alpelisib; first compound 0.08 µM) | relative viability (Bicalutamide + Alpelisib; first compound 0.253 µM) | relative viability (Bicalutamide + Alpelisib; first compound 0.8 µM) | relative viability (Bicalutamide + Alpelisib; first compound 2.53 µM)
1 | HCC-827 | 0.356 | 0.295 | 0.305 | 0.331 | 0.266 | 0.844 | 0.982 | 0.968 | 0.886 | 0.741 | 0.171 | 0.178 | 0.171 | 0.193 | 0.965 | 0.79 | 1.03 | 0.958
2 | HOP-62 | 0.217 | 0.229 | 0.186 | 0.211 | 0.138 | 0.716 | 0.579 | 0.569 | 0.534 | 0.428 | 1.13 | 0.995 | 1.05 | 1.07 | 1.31 | 0.959 | 1.19 | 1.12
3 | IA-LM |  |  |  |  |  | 0.964 | 0.975 | 1.15 | 0.861 | 0.696 | 0.969 | 0.958 | 1.02 | 0.711 | 0.801 | 0.793 | 0.964 | 0.782
4 | LC-2-ad | 0.856 | 0.726 | 0.797 | 0.872 | 0.695 | 0.706 | 0.631 | 0.72 | 0.645 | 0.575 | 0.851 | 0.873 | 1.08 | 0.957 | 0.99 | 0.921 | 0.852 | 0.894
5 | LCLC-97TM1 | 0.246 | 0.226 | 0.263 | 0.243 | 0.16 | 0.666 | 0.671 | 0.887 | 0.601 | 0.655 | 0.857 | 0.971 | 1.1 | 1 | 0.254 | 0.231 | 0.286 | 0.226
6 | LCLC-103H | 0.757 | 0.764 | 0.797 | 0.77 | 0.825 | 0.762 | 0.757 | 0.818 | 0.821 | 0.691 |  |  |  |  | 1.04 | 0.907 | 1.1 | 1.02
7 | LK-2 | 0.277 | 0.232 | 0.287 | 0.325 | 0.272 | 0.333 | 0.203 | 0.218 | 0.297 | 0.165 | 0.901 | 0.852 | 1.11 | 0.898 | 1.21 | 0.878 | 1.44 | 1.16
8 | LOU-NH91 | 0.868 | 0.79 | 0.799 | 0.876 | 0.861 | 1.07 | 0.961 | 0.912 | 1 | 1 | 0.816 | 0.638 | 0.856 | 0.752 | 0.698 | 0.608 | 0.828 | 0.745
9 | LU99A | 0.894 | 0.903 | 0.979 | 0.949 | 0.95 | 0.46 | 0.526 | 0.567 | 0.532 | 0.409 | 0.958 | 0.847 | 1.28 | 0.798 | 0.625 | 0.447 | 0.603 | 0.402
10 | LXF-289 | 0.398 | 0.417 | 0.419 | 0.388 | 0.397 | 0.777 | 0.796 | 0.714 | 0.81 | 0.677 | 0.92 | 0.845 | 0.991 | 0.877 | 1.04 | 0.952 | 1.08 | 1.03
11 | NCI-H23 | 0.299 | 0.294 | 0.308 | 0.277 | 0.303 | 0.569 | 0.639 | 0.64 | 0.538 | 0.39 | 1.07 | 0.987 | 1.38 | 0.843 | 0.692 | 0.693 | 0.885 | 0.557
12 | NCI-H322M | 0.705 | 0.717 | 0.747 | 0.758 | 0.669 | 1.04 | 0.844 | 0.739 | 0.8 | 0.88 | 0.576 | 0.602 | 0.664 | 0.572 | 0.948 | 0.772 | 0.882 | 0.74
13 | NCI-H441 | 0.324 | 0.238 | 0.243 | 0.22 | 0.242 | 0.828 | 0.856 | 0.761 | 0.623 | 0.607 |  |  |  |  | 0.968 |  | 0.856 | 0.876
14 | NCI-H522 | 0.604 | 0.705 | 0.619 | 0.699 | 0.603 | 0.93 | 1.02 | 1.02 | 0.799 | 0.763 |  |  |  |  |  |  |  | 
15 | NCI-H1299 |  |  |  |  |  |  |  |  |  |  | 0.92 | 0.966 | 0.971 | 0.929 | 1.11 | 1.13 | 1.08 | 1.11
16 | NCI-H1563 |  |  |  |  |  |  |  |  |  |  | 1.19 | 0.853 | 0.984 | 0.776 | 0.944 | 0.95 | 0.897 | 0.779
17 | NCI-H1648 | 0.465 | 0.572 | 0.454 | 0.511 | 0.491 | 0.324 | 0.566 | 0.563 | 0.766 | 0.314 |  |  |  |  |  |  |  | 
18 | NCI-H1650 | 0.448 | 0.393 | 0.462 | 0.454 | 0.266 | 0.549 | 0.388 | 0.505 | 0.54 | 0.304 | 0.905 | 0.655 | 1.09 | 0.74 |  |  |  | 
19 | NCI-H1703 |  |  |  |  |  |  |  |  |  |  | 1.16 | 1.03 | 1.18 | 0.643 | 0.321 | 0.243 | 0.332 | 0.262
20 | NCI-H1792 | 0.57 | 0.614 | 0.45 | 0.498 | 0.555 |  |  |  |  |  | 0.958 | 0.858 | 1.03 | 0.91 | 0.722 | 0.656 | 0.794 | 0.665
21 | NCI-H2228 |  |  |  |  |  | 0.454 | 0.723 | 0.764 | 0.581 | 0.372 | 0.707 | 1.04 | 1.23 | 1.02 | 0.779 | 0.805 | 0.908 | 0.58
22 | NCI-H2342 | 0.746 | 0.682 | 0.676 | 0.695 | 0.629 | 0.807 | 0.806 | 0.7 | 0.622 | 0.684 |  |  |  |  |  |  |  | 
23 | SW 900 | 0.451 | 0.485 | 0.462 | 0.419 | 0.449 | 0.393 | 0.487 | 0.559 | 0.377 | 0.476 |  |  |  |  |  |  |  | 
